Reference: patent US20240409543A1, “PYRROLOPYRAZOLE SPIRO COMPOUND” (CHIA TAI TIANQING PHARMACEUTICAL GROUP CO., LTD., priority 2021, published 2024)

Experiments:
[1] = tested on: H358 cells (NCIH358_LUNG); assay: Anti-proliferation experiment on tumor cells with KRAS mutations, H358 (3D CellTiter-Glo); format: cell-based; conditions: Homo sapiens, NCI-H358, 120 h, 5 days incubation with compound, ultra-low attachment plate
Description: (§1) Cell culture medium, penicillin/streptomycin antibiotics purchased from Wisent, and fetal bovine serum purchased from Biosera; 3D CellTiter-Glo (chemiluminescence detection reagent for cell viability) reagent purchased from Promega; Cell lines purchased from Nanjing Cobioer Biosciences Co., Ltd. and Wuhan Procell Life Science & Technology Co., Ltd; and Envision multimode microplate reader (PerkinElmer).
(§2) Different types of tumor cells were each seeded in an ultra-low attachment 96-well U-bottom plate, with 80 μL of cell suspension per well. The cell plate was incubated in a CO2 incubator overnight.
(§3) Each test compound was diluted in a 5-fold gradient to the 9th concentration (i.e., from 2 mM to 5.12 nM or from 200 μM to 0.512 nM) using a multi-channel pipette, with duplicate wells set up. 78 μL of medium was added to an intermediate plate, and the serially diluted compound was transferred to the corresponding wells of the intermediate plate at 2 μL/well. The mixture was mixed well and then transferred to the cell plate at 20 µL/well. The concentration of the compound transferred to the cell plate ranged from 10 μM to 0.0256 nM or from 1 μM to 0.00256 nM. The cell plate was then incubated in a CO2 incubator for 3-6 days.
(§4) The chemiluminescence detection reagent for cell viability was added to the cell plate at 100 μL/well, and the luminescence signals were stabilized by incubation for 10 min at room temperature. Readings were taken using the multimode microplate reader.
(§5) The original data were converted to inhibition rates and then the IC50 values were obtained by curve fitting using a four-parameter method (obtained from the “log(inhibitor) vs. response—Variable slope” model in GraphPad Prism). Table 2 illustrates the inhibitory activity of the compounds disclosed herein against the proliferation of different types of tumor cells.

[2] = tested on: ERK phosphorylation in H358 cells; assay: Inhibitory activity against ERK phosphorylation in H358 cells (HTRF Phospho-ERK1/2 kit); format: cell-based; conditions: Homo sapiens, NCI-H358; starved H358 cells, 1 h compound incubation; read-out: H358 cell ERK phosphorylation IC50
Method: H358 cells purchased from Nanjing Cobioer Biosciences Co., Ltd., 1640 medium purchased from Biological industries, fetal bovine serum purchased from Biosera, and Advanced Phospho-ERK1/2 (THR202/TYR204) KIT purchased from Cisbio.
• 1. H358 cells were plated in a transparent 96-well cell culture plate, with 80 μL of cell suspension per well, each well containing 10000 H358 cells. The cell plate was incubated in a CO2 incubator at 37° C. overnight. • 2. The cell supernatant was discarded, and a starvation medium (1640+0.02% fetal bovine serum+1% […]) was added at 80 μL/well. The cell plate was then incubated in a CO2 incubator for cell starvation treatment overnight; • 3. Each test compound was diluted with 100% DMSO to 4 mM as the first concentration, and then diluted in a 5-fold gradient to the 8th concentration (i.e., from 4 mM to […]) using a pipette. 1 μL of the compound was then added to 79 μL of cell starvation medium. The mixture was mixed well, and then the compound solution was added to the corresponding wells of the cell plate at 20 μL/well. The cell plate was then put back to the CO2 incubator for incubation for another 1 h. At that time, the concentration of the compound ranged from 10 μM to 0.0256 nM, with the concentration of DMSO being 0.25%. • 4. After the incubation was completed, the cell supernatant was discarded, and a cell lysis buffer was added at 50 μL/well. The plate was then incubated with shaking at room temperature for 30 min. 5. The Phospho-ERK1/2 Eu Cryptate antibody and Phospho-ERK1/2 d2 antibody were diluted in a 20-fold gradient with the Detection buffer. • 6. 16 μL of the cell lysate supernatant from each well was transferred to a new 384-well white microplate, and then 2 μL of the Phospho-ERK1/2 Eu Cryptate antibody dilution and 2 μL of the Phospho-ERK1/2 d2 antibody dilution were added to each well. The mixture was incubated at room temperature for 4 h. • 7. After the incubation was completed, HTRF values were read using a multimode microplate reader, with an excitation wavelength of 320 nm and emission wavelengths of 615 nm and 665 nm.
The original data were converted to inhibition rates and then the IC50 values were obtained by curve fitting using a four-parameter method.

SHP2 = target: T1, SHP2 (Homo sapiens, UniProt Q06124); assay: SHP2 in-vitro enzymology experiment (Homogeneous Full Length SHP-2 Assay Kit, DiFMUP substrate); format: biochemical; conditions: 60 min pre-incubation, 30 min reaction at 25° C.
T1 construct: Homogeneous Full Length SHP-2 Assay Kit (purchased from BPS Bioscience); purchased BPS Bioscience
T1 sequence (Q06124 1-593): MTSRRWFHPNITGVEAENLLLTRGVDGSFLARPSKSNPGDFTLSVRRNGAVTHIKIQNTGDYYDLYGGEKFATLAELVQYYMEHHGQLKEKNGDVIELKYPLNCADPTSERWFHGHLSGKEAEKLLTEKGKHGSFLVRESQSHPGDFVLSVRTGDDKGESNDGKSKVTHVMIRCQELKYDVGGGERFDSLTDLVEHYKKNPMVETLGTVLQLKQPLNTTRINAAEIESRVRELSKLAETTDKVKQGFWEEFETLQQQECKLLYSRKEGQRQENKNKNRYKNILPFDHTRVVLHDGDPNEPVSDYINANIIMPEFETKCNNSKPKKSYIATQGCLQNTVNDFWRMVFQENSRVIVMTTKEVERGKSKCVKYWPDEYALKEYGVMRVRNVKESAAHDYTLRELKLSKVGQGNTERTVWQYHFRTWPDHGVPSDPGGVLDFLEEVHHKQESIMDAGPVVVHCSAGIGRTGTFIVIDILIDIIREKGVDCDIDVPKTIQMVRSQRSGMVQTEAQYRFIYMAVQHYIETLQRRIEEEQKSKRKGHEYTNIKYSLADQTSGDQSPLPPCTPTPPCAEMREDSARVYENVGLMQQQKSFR
Method: Experimental materials: Homogeneous Full Length SHP-2 Assay Kit (purchased from BPS Bioscience) and NIVO multimode microplate reader.
Preparation of 1× buffer (ready-to-use): 5× buffer was diluted with deionized water to give 1× buffer, which was then placed on ice for later use.
Each test compound was diluted with 100% DMSO to 100 μM as the first concentration, and then diluted in a 4-fold gradient to the 8th concentration (i.e., from 100 μM to 6.1 nM) using a multi-channel pipette. Each gradient of the test compound was diluted with 1× buffer to prepare a working solution with 10% DMSO. The resulting solution was then added to the corresponding wells of a plate at 5 μL/well, with duplicate wells set up. The plate was then centrifuged at 1000 rpm for 1 min.
18 μL of a prepared reaction mixed solution (containing 12.25 μL of deionized water, 5 μL of 5× buffer; 0.25 μL of SHP-2 substrate polypeptide (100 μM), and 0.5 μL of DTT (250 mM)) was added to each well. The plate was then centrifuged at 1000 rpm for 1 min.
An SHP-2 enzyme was diluted to 0.1 ng/μL with 1× buffer. The resulting solution was added to the corresponding wells at 2 μL/well, and 2 μL of 1× buffer and […] were added to each negative control well. This step was performed on ice. The reaction system was then incubated at 25° C. for 60 min for compound pre-incubation.
After the compound pre-incubation was completed, 25 μL of a substrate working solution (containing 19.45 μL of deionized water, 5 μL of 5× buffer; 0.5 μL of DTT (250 mM), and 0.05 μL of SHP-2 Substrate (DiFMUP) (10 mM)) was added to each well, and the reaction system was allowed to react at 25° C. for 30 min. At that time, the final concentration gradient of the compound ranged from 1 μM to 0.061 nM. After the reaction was completed, the fluorescence values were read using the NIVO multimode microplate reader, with an excitation wavelength of 360 nm and an emission wavelength of 460 nm.
Detection of compound background reading values: Each gradient of the test compound diluted with 100% DMSO was added to a new compound plate at 5 μL/well, and then 1× buffer was added at 45 μL/well to achieve a 10-fold dilution to prepare a working solution with 10% DMSO. Next, the compound working solution was added to the detection plate at 5 μL/well, and then 1× buffer was added at 45 μL/well to achieve another 10-fold dilution, bringing the final concentration of DMSO to 1%. The plate was then centrifuged at 1000 rpm for 1 min. The fluorescence values were read using the multimode microplate reader, with an excitation wavelength of 360 nm and an emission wavelength of 460 nm.
The original data were converted to inhibition rates and the IC50 values were obtained by curve fitting using a four-parameter method.

[3] = tested on: MiaPaCa-2 cells (MIAPACA2_PANCREAS); assay: Anti-proliferation experiment on tumor cells with KRAS mutations, MiaPaCa-2 (3D CellTiter-Glo); format: cell-based; conditions: Homo sapiens, MIA PaCa-2, 72 h, 3 days incubation with compound, ultra-low attachment plate
Description: as §1, §2, §3, §4, §5

Row | Compound | IC50 [1] [nM] | IC50 [2] [nM] | IC50 (SHP2) [nM] | IC50 [3] [nM]
1 | Cc1nc(N2CCC3(CC2)Cn2nccc2C3N)c(CO)nc1Sc1cccc(Cl)c1Cl (stereo not drawn) [Compound 3] | 62.1 | 55.6 | 2.28 | 35
2 | Cc1nc(N2CCC3(CC2)Cn2nccc2C3N)c(C(N)=O)nc1Sc1ccnc(N)c1Cl (stereo not drawn) [Compound 5] | 43.1 | 45.3 | 3.24 | 48.5
3 | CONc1nccc(Sc2nc(CO)c(N3CCC4(CC3)Cn3nccc3C4N)nc2C)c1Cl (stereo not drawn) [Compound 8] |  |  | 3.99 | 
4 | Cc1nc(Sc2ccnc(N)c2Cl)cnc1N1CCC2(CC1)Cn1nccc1C2N (stereo not drawn) [Compound 10] | 38.9 |  | 1.09 | 19.3
